Read-outs that look alike come from different tables or passages of the source.
How the values were obtained:
[1] = molecular target: T1, AEA-DA lipid probe targets in Neuro2a cells (Mus musculus, UniProt P52875)
T1 sequence (P52875 34-323): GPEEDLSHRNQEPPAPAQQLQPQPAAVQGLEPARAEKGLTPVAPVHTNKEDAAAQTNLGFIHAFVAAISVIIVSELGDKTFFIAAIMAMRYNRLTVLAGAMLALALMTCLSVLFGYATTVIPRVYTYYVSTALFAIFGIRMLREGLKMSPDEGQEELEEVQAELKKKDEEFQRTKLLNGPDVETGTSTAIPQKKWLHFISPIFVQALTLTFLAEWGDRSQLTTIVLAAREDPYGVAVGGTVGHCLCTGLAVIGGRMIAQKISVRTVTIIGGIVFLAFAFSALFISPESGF

[2] = molecular target: T2, AEA-DA lipid probe targets in Neuro2a cells (Mus musculus, UniProt O70503); conditions: for SILAC ratio, HSD17B12 (Q53GQ0): Neuro2a cells, AEA-DA probe
T2 sequence (O70503 1-312): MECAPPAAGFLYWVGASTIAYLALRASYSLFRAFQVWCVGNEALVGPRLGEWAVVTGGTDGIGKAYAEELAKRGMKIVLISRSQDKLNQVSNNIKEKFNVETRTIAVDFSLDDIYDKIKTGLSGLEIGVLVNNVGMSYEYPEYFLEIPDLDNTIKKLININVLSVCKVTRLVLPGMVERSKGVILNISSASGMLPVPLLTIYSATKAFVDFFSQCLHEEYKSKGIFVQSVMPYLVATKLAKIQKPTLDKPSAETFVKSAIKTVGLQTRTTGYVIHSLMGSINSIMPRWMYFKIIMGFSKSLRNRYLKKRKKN

[3] = molecular target: T3, AEA-DA lipid probe targets in Neuro2a cells (Mus musculus, UniProt Q9JMF7)
T3 sequence (Q9JMF7 1-238): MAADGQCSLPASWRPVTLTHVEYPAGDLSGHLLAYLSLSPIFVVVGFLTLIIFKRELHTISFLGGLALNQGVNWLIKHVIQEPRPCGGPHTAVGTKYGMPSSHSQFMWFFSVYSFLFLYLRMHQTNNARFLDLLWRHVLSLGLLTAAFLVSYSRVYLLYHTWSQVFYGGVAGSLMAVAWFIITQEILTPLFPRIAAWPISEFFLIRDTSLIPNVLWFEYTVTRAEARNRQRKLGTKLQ

[4] = molecular target: T4, AEA-DA lipid probe targets in Neuro2a cells (Mus musculus, UniProt P10404)
T4 sequence (P10404 33-641): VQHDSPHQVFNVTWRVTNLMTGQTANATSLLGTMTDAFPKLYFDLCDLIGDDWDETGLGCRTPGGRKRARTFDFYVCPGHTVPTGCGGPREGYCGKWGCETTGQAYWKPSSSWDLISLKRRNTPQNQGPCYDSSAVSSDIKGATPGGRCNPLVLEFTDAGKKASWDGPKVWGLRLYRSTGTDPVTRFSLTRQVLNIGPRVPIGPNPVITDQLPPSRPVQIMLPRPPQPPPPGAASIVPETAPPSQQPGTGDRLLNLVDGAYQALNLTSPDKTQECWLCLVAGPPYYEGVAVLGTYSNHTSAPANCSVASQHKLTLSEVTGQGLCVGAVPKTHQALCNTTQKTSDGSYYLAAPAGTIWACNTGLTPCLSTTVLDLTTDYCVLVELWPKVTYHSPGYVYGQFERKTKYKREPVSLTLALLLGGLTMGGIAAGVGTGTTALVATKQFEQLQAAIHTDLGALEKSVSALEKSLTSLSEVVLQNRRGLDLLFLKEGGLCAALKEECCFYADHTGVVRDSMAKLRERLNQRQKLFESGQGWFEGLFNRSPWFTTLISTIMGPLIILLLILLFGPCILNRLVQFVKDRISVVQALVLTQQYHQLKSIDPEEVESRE

[5] = molecular target: T5, AEA-DA lipid probe targets in Neuro2a cells (Mus musculus, UniProt Q9D6K9)
T5 sequence (Q9D6K9 1-414): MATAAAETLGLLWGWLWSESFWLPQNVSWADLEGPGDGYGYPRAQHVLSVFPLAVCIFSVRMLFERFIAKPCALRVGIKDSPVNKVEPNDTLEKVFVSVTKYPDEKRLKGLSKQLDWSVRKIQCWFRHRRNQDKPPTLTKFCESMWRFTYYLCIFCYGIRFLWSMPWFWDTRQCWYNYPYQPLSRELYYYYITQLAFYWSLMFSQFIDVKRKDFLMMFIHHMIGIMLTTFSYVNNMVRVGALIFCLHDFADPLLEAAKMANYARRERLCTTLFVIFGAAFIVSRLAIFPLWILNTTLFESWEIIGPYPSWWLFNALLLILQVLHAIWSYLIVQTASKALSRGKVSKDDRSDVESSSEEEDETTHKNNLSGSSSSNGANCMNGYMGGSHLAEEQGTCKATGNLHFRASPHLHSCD

[6] = molecular target: T6, AEA-DA lipid probe targets in Neuro2a cells (Mus musculus, UniProt P61759)
T6 sequence (P61759 1-196): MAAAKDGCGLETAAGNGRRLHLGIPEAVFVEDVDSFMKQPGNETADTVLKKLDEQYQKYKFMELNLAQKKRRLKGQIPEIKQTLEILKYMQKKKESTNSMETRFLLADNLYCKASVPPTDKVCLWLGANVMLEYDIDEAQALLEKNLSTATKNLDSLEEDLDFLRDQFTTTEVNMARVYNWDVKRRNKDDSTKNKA

[7] = molecular target: T7, AEA-DA lipid probe targets in Neuro2a cells (Mus musculus, UniProt Q3TZX3)
T7 sequence (Q3TZX3 1-320): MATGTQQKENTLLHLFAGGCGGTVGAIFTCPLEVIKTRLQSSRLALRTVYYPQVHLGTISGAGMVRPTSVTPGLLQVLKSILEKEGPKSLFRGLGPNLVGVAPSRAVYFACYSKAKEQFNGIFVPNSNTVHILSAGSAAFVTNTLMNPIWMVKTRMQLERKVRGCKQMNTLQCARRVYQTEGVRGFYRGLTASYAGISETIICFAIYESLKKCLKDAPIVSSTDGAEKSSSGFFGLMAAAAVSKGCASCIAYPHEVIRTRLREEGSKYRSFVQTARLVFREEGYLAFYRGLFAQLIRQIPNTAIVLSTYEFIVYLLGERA

| SMILES | SILAC ratio, Tmem165 ([1]; competitor 25 μM) | SILAC ratio, HSD17B12 (Q53GQ0) ([2]; competitor 25 μM) | SILAC ratio, Hsd17b12 ([2]; competitor 25 μM) | SILAC ratio, Dolpp1 ([3]; competitor 25 μM) | SILAC ratio MLV-related ([4]; competitor 25 μM) | SILAC ratio, Cers5 ([5]; competitor 25 μM) | SILAC ratio, Vbp1 ([6]; competitor 25 μM) | SILAC ratio Slc25a33 ([7]; competitor 25 μM) | also measured |
| --- | --- | --- | --- | --- | --- | --- | --- | --- | --- |
| CCCCC/C=C\C/C=C\C/C=C\C/C=C\CCCC(=O)NCCO [AEA, anandamide, reference compound] | – | – | – | – | – | – | – | – | SILAC ratio, Tmem165 ([1]; competitor 200 μM): 1.5; SILAC ratio, HSD17B12 (Q53GQ0) ([2]; competitor 200 μM): 2.2; SILAC ratio, Hsd17b12 ([2]; competitor 200 μM): 2.2; SILAC ratio, Dolpp1 ([3]; competitor 200 μM): 2.2; SILAC ratio MLV-related ([4]; competitor 200 μM): 1.4; SILAC ratio, Cers5 ([5]; competitor 200 μM): 2.1; SILAC ratio, Vbp1 ([6]; competitor 200 μM): 1.1; SILAC ratio Slc25a33 ([7]; competitor 200 μM): 1.3 |
| O=C(/C=C/c1cccnc1)NCCCCC1CCN(C(=O)c2ccccc2)CC1 [FK-866, reference compound] | 1.1 | 1.7 | 1.7 | 1.2 | 1.1 | 1.1 | 1.1 | 1.2 | – |
| CN1CCN(C(=O)c2c(-c3ccccc3)c3cc([N+](=O)[O-])ccc3n2C)CC1 [KML110, (1-Methyl-5-nitro-3-phenyl-1H-indol-2-yl)(4-methylpiperazin-1-yl)methanone] | 1.5 | – | 1.7 | 1.6 | 1.2 | 1.6 | 1.6 | 1.4 | – |
| CN1CCN(C(=O)c2[nH]c3ccc([N+](=O)[O-])cc3c2-c2ccccc2)CC1 [MJN228, (4-Methylpiperazin-1-yl)(5-nitro-3-phenyl-1H-indol-2-yl)methanone] | 1.2 | 1.6 | 1.6 | 1.6 | 1.8 | 1.8 | 1.5 | 1.2 | SILAC ratio, Tmem165 ([1]; competitor 10 μM): 1.0; SILAC ratio, Tmem165 ([1]; competitor 100 μM): 1.5; SILAC ratio, Hsd17b12 ([2]; competitor 10 μM): 1.2; SILAC ratio, Hsd17b12 ([2]; competitor 50 μM): 1.7; SILAC ratio, Hsd17b12 ([2]; competitor 100 μM): 2.3; SILAC ratio, Dolpp1 ([3]; competitor 10 μM): 1.2; SILAC ratio, Dolpp1 ([3]; competitor 50 μM): 1.9; SILAC ratio, Dolpp1 ([3]; competitor 100 μM): 3.3; SILAC ratio MLV-related ([4]; competitor 10 μM): 1.8; SILAC ratio MLV-related ([4]; competitor 50 μM): 1.7; SILAC ratio MLV-related ([4]; competitor 100 μM): 2.5; SILAC ratio, Cers5 ([5]; competitor 10 μM): 1.2; SILAC ratio, Cers5 ([5]; competitor 50 μM): 2.1; SILAC ratio, Cers5 ([5]; competitor 100 μM): 3.0; SILAC ratio, Vbp1 ([6]; competitor 50 μM): 0.9; SILAC ratio, Vbp1 ([6]; competitor 100 μM): 2.0; SILAC ratio Slc25a33 ([7]; competitor 10 μM): 1.2; SILAC ratio Slc25a33 ([7]; competitor 50 μM): 0.9; SILAC ratio Slc25a33 ([7]; competitor 100 μM): 0.6 |
| C=CCN(C)CCCCCCOc1ccc(C(=O)c2ccc(Br)cc2)c(F)c1 [Ro 48-8071, reference compound] | 1.1 | 0.9 | 0.9 | 1.3 | 1.0 | 1.3 | 0.9 | 1.0 | – |
